What was measured:
[1] = test system: pain threshold (tail-pressure); assay: Tail-pressure method, comparison with morphine (i.v.); format: in vivo, mice (Std:ddY, male); conditions: for Inhibition rate: mean ± standard error
Procedure: (2) Comparison with Morphine
Std:ddY Strain male mice (20-25 g) were fasted for one day before the experiment, and were used. In this experiment, the tartaric acid salt of a compound of number (2) in Table 1 and morphine hydrochloride as a possitive control were used. This tartaric acid salt was dissolved in 0.9% physiological saline solution at the rates of 5 mg/2 ml, 3 mg/2 ml and 1 mg/2 ml. Morphine hydrochloride was dissolved in 0.9% physiological saline solution at the rates of 5 mg/2 ml, 3 mg/2 ml and 1 mg/2 ml. As a negative control, 0.9% phisiological saline solution was used. A tail-pressure apparatus was used in this experiments. Before the administration of test compounds, the pain threshold was measured twice at intervals of 30 minutes and those mice indicating a pain threshold of 50 to 100 mmHg were selected and used. The pain threshold of each mouse was measured at 10, 20 and 30 minutes after test compound solution mentioned above was administered at 2 ml/kg, i.v. 0.9% Physiological saline solution as a control was administered i.v. The results were described as an inhibition rate (%) indicating in the preceding paragraph (1).

[2] = test system: nociceptive response (licking); assay: Analgesic activity by the hot-plate method; format: in vivo, mice (Std:ddY, male); conditions: mouse, 52° C. plate, solution 10 mg/10 ml, mean ± standard error
Procedure: Measurement of Analgesic Activity by the Hot-Plate Method
Std:ddY Strain male mice (20-25 g) were fasted for one day before the experiment, and were used. After compounds shown in Table 1 were formed to the tartaric acid salts, these compounds were dissolved in 0.9% physiologocal saline solution at the rate of 10 mg/10 ml, respectively and these solution were used as test compound solution. In a control, 0.9% physiological saline solution was used. Mice were placed on a cyrindric hot plate (diameter: 22 cm, height: 11 cm) made of copper which was fixed in a water bath adjusted to 52° C. so that each animal's four paws came into contact with the plate and the time taken to show the nociceptive response (licking) as an index of pain was measured. Mice showing response latency above 25 seconds were excluded from the experiment. To prevent a burn damage of mouse tissue by heating, cutoff time of 50 seconds was defined. The results were described as an inhibition rate (%) obtained from the following equation.
Inhibition rate (%)=(A-B)×100/(50-B)
A: Response latency (seconds) after the administration of test compound solution
B: Response latency (seconds) before the administration of test compound solution

yeast-induced fever = assay: Antipyretic activity on yeast-induced fever in rats; format: in vivo, rats (Wistar, male); conditions: rat, 2 hours after administration
Procedure: Measurement of Antipyretic Activity on Yeast-Induced Fever in Rats
Wistar Strain male rats (150-190 g) were fasted for one day before the experiment, and were used. Compounds of number (1) and (2) in Table 1 were formed to the tartaric acid salt and these salts were dissolved in 0.9% physiological saline solution at the rate of 10 mg/10 ml and these solution were used as test compound solution. In a control, 0.9% physiological saline solution was used. After rat rectal temperature was measured, 1 ml/100 g of body weight of 7.5% yeast/0.9% physiological saline solution was injected s.c. at dorsal position. Then, rat rectal temperature was measured at 4 hour after the injection of yeast and rats showing the increase rectal temperature by 1 degree or more were selected and used. Test compound solution was administered s.c. at 5 hours after the injection of yeast. The rectal temperature was measured 2 hours after the administration of test compound solution. The results were described with the difference between the rectal temperature before and after the administration of test compound solution.

[3] = test system: carrageenin-induced paw edema; assay: Antiinflammatory activity by the carrageenin-induced hind paw edema; format: in vivo, mice (Std:ddY, male); conditions: mouse, 30 mg/kg p.o., mean ± standard error, n = 6
Procedure: Measurement of Antiinflammatory Activity by the Carrageenin-Induced Hind Paw Edema
Std:ddY Strain male mice (20-25 g) were fasted for one day before the experiment, and were used. After test compounds shown in Table 1 was formed to a salt with tartaric acid, this salt was dissolved in sterilized and distilled water at the rate of 30 mg/10 ml to give the test compound solution. As a control, sterilized and distilled water was used. One hour after the oral administration of test compound solutions, 25 μl of λ-carrageenin suspended in 0.9% physiological saline solution (0.5 mg/25 μl) was injected s.c. under the plantar surface of the right hind paw of a mouse and 25 μl of 0.9% physiological saline solution was injected s.c. under the plantar surface of the left hind paw of the same mouse. Three hours and five hours after carrageenin injection, the […] of the paw was measured with a dial gauge calliper. To the control group, One hour after the oral administration of sterilized and distilled water at the rate of 10 ml/kg, 25 μl of λ-carrageenin (0.5 mg/25 μl) suspended in 0.9% physiological saline solution was injected s.c. under the plantar surface of the right hind paw of a mouse and 25 μl of 0.9% physiological saline solution was injected s.c. under the plantar surface of the left hind paw of the same mouse and the later operation was done in the same manner as in the test compound dosing group mentioned above. The results were described as a swelling rate (%) obtained from the following equation.
Swelling rate (%)=(R-L)×100/L
R: the thickness of the right hind paw
L: the thickness of the left hind paw

CCN1CC2(COC)C(O)CC(OC)C34C5CC6(O)C(OC)C(OC(C)=O)C(O)(C5C6OC(=O)c5ccc(Cl)cc5)C(C(OC)C23)C14 (stereo not shown) [(2), 15-O-acetyl-14-O-p-chlorobenzoylaconine]
Inhibition rate ([1]; 1 mg/kg i.v., 10 minutes): 5 ± 4%
Inhibition rate ([1]; 1 mg/kg i.v., 20 minutes): 4 ± 4%
Inhibition rate ([1]; 1 mg/kg i.v., 30 minutes): 2 ± 3%
Inhibition rate ([1]; 3 mg/kg i.v., 10 minutes): 14 ± 15%
Inhibition rate ([1]; 3 mg/kg i.v., 20 minutes): 16 ± 10%
Inhibition rate ([1]; 3 mg/kg i.v., 30 minutes): 12 ± 12%
Inhibition rate ([1]; 5 mg/kg i.v., 10 minutes): 38 ± 13%
Inhibition rate ([1]; 5 mg/kg i.v., 20 minutes): 27 ± 6%
Inhibition rate ([1]; 5 mg/kg i.v., 30 minutes): 22 ± 7%
analgesic activity compared with morphine, in words ([1]; mouse, i.v.): had an equal analgesic activity in its strength to morphine
Inhibition rate (hot-plate method) [2]: 76 ± 11%
Change of rectal temperature (yeast-induced fever; 1 mg/kg s.c.): 1.5 ± 0.2 °C
Change of rectal temperature (yeast-induced fever; 3 mg/kg s.c.): 0.5 ± 0.2 °C
Change of rectal temperature (yeast-induced fever; 10 mg/kg s.c.): 0.3 ± 0.1 °C
Swelling rate ([3]; 3 hour): 40 ± 9%
Swelling rate ([3]; 5 hour): 46 ± 9%

Reference: patent publication US5770604A, “Aconitine compound and an antipyretic/analgesic/anti-inflammatory agent” (priority 1994, dated 1998)
